{"source": "ChEMBL document CHEMBL5365476", "about": "“VHL-Modified PROteolysis TArgeting Chimeras (PROTACs) as a Strategy to Evade Metabolic Degradation in In Vitro Applications” (J Med Chem, 2023)", "key": {"[1]": {"molecular_target": "von Hippel-Lindau disease tumor suppressor (Homo sapiens) (UniProt P40337)", "sequence (P40337 whole entry, looked up)": "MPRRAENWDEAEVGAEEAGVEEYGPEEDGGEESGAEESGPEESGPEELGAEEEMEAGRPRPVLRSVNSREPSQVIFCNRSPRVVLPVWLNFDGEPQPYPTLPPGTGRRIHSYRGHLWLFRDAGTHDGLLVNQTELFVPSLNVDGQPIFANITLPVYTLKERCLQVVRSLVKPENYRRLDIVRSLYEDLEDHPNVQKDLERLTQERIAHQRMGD", "assay": "Binding affinity to 6-His tagged human VHL at 50 uM incubated for 1 hr by HTRF based assay relative to control"}, "[2]": {"assay": "Metabolic stability in human hepatocytes assessed as half life", "assay_type": "ADME, cell-based, Hepatocyte"}, "[3]": {"assay": "Drug metabolism in HEK293 cells cytosol assessed as M-200 metabolite formation incubated for 60 mins", "assay_type": "ADME, subcellular", "conditions": "human, 1 h"}, "[4]": {"assay": "Drug metabolism in HEK293 cells cytosol assessed as M+16 metabolite formation incubated for 60 mins", "assay_type": "ADME, subcellular", "conditions": "human, 1 h"}, "[5]": {"assay": "Metabolic stability in HEK293 cells cytosol assessed as half life", "assay_type": "ADME, subcellular", "conditions": "human, HEK293 cell cytosol"}, "[6]": {"assay": "Drug metabolism in human hepatocytes assessed as M + 16 metabolite formation incubated for 240 mins by LC-MS/MS analysis", "assay_type": "ADME, cell-based, Hepatocyte", "conditions": "4 h"}, "[7]": {"assay": "Drug metabolism in human liver cytosol assessed as M-200 metabolite formation incubated for 60 mins in presence of 100 uM ZPP", "assay_type": "ADME, subcellular", "conditions": "1 h"}, "[8]": {"assay": "Drug metabolism in human hepatocytes assessed as M + 16 metabolite formation incubated for 240 mins in presence of ZPP by LC-MS/MS analysis", "assay_type": "ADME, cell-based, Hepatocyte", "conditions": "4 h"}, "[9]": {"assay": "Drug metabolism in HEK293 cells cytosol assessed as M+16 metabolite formation incubated for 60 mins in presence of 1 to 30 nM ZPP", "assay_type": "ADME, subcellular", "conditions": "human, 1 h"}, "[10]": {"assay": "Drug metabolism in human liver microsomes assessed as M-200 metabolite formation incubated for 60 mins in presence of 30 nM ZPP", "assay_type": "ADME, Microsome", "conditions": "1 h"}, "[11]": {"assay": "Drug metabolism in human hepatocytes assessed as M-200 metabolite formation incubated for 240 mins in presence of 3 uM ZPP by LC-MS/MS analysis", "assay_type": "ADME, cell-based, Hepatocyte", "conditions": "4 h"}, "[12]": {"assay": "Drug metabolism in HEK293 cells cytosol assessed as M-525 metabolite formation", "assay_type": "ADME, subcellular", "conditions": "human"}, "[13]": {"assay": "Drug metabolism in human liver microsomes assessed as M-200 metabolite formation incubated for 60 mins", "assay_type": "ADME, Microsome", "conditions": "1 h"}, "[14]": {"assay": "Drug metabolism in human liver microsomes assessed as M-200 metabolite formation incubated for 60 mins in presence of 1 nM ZPP", "assay_type": "ADME, Microsome", "conditions": "1 h"}, "[15]": {"assay": "Drug metabolism in human hepatocytes assessed as M-200 metabolite formation incubated for 240 mins in presence of ZPP by LC-MS/MS analysis", "assay_type": "ADME, cell-based, Hepatocyte", "conditions": "4 h"}, "[16]": {"assay": "Drug metabolism in human liver cytosol assessed as M-200 metabolite formation incubated for 60 mins in presence of 30 nM ZPP", "assay_type": "ADME, subcellular", "conditions": "1 h"}, "[17]": {"assay": "Drug metabolism in HEK293 cells cytosol assessed as M-200 metabolite formation incubated for 60 mins in presence of 30 nM ZPP", "assay_type": "ADME, subcellular", "conditions": "human, 1 h"}}}
{"smiles": "Cc1ncsc1-c1ccc(-c2c[nH]c([C@@H]3C[C@@H](O)CN3C(=O)[C@@H](N)C(C)(C)C)n2)cc1", "values": [{"measurement": "Activity", "setting": "[1]", "value": 21, "unit": "%"}, {"measurement": "half-life", "setting": "[2]", "value": 5.76, "unit": "h"}]}
{"smiles": "Cc1ncsc1-c1ccc(-c2cnc([C@@H]3C[C@@H](O)CN3C(=O)[C@@H](NC(=O)CCCCNC(=O)COc3c(-c4csc(N5CCOCC5)n4)ccc(F)c3F)C(C)(C)C)[nH]2)cc1", "values": [{"measurement": "Drug metabolism", "setting": "[3]", "value": "Metabolite_Notdetected"}, {"measurement": "Drug metabolism", "setting": "[4]", "value": "Metabolite_Detected"}]}
{"smiles": "Cc1nc(C)c(-c2ccc(-c3cnc([C@@H]4C[C@@H](O)CN4C(=O)[C@@H](NC(=O)CCCCNC(=O)COc4c(-c5csc(N6CCOCC6)n5)ccc(F)c4F)C(C)(C)C)[nH]3)cc2)s1", "values": [{"measurement": "half-life", "setting": "[5]", "value": 17.1, "unit": "h"}]}
{"smiles": "Cc1ncsc1-c1ccc([C@H](C)NC(=O)[C@@H]2C[C@@H](O)CN2C(=O)[C@@H](N)C(C)(C)C)cc1", "values": [{"measurement": "Drug metabolism", "setting": "[6]", "value": "Metabolite_Detected"}, {"measurement": "Drug metabolism", "setting": "[7]", "value": "Metabolite_Detected"}, {"measurement": "Activity", "setting": "[1]", "value": 73, "unit": "%"}, {"measurement": "half-life", "setting": "[2]", "value": 2.01, "unit": "h"}, {"measurement": "Drug metabolism", "setting": "[8]", "value": "Metabolite_Detected"}, {"measurement": "Drug metabolism", "setting": "[9]", "value": "Metabolite_Detected"}, {"measurement": "Drug metabolism", "setting": "[4]", "value": "Metabolite_Detected"}]}
{"smiles": "Cc1ncsc1-c1ccc([C@H](C)NC(=O)[C@@H]2C[C@@H](O)CN2C(=O)[C@@H](NC(=O)CCCCNC(=O)COc2c(-c3csc(N4CCOCC4)n3)ccc(F)c2F)C(C)(C)C)cc1", "values": [{"measurement": "Drug metabolism", "setting": "[10]", "value": "Metabolite_Notdetected"}, {"measurement": "half-life", "setting": "[5]", "value": 2.85, "unit": "h"}, {"measurement": "Drug metabolism", "setting": "[11]", "value": "Metabolite_Notdetected"}, {"measurement": "Drug metabolism", "setting": "[6]", "value": "Metabolite_Detected"}, {"measurement": "Drug metabolism", "setting": "[12]", "value": "Metabolite_Detected"}, {"measurement": "Drug metabolism", "setting": "[8]", "value": "Metabolite_Detected"}, {"measurement": "Drug metabolism", "setting": "[13]", "value": "Metabolite_Notdetected"}, {"measurement": "Drug metabolism", "setting": "[14]", "value": "Metabolite_Notdetected"}, {"measurement": "Drug metabolism", "setting": "[15]", "value": "Metabolite_Detected"}, {"measurement": "Drug metabolism", "setting": "[16]", "value": "Metabolite_Notdetected"}, {"measurement": "Drug metabolism", "setting": "[17]", "value": "Metabolite_Notdetected"}]}
{"smiles": "Cc1nc(C)c(-c2ccc([C@H](C)NC(=O)[C@@H]3C[C@@H](O)CN3C(=O)[C@@H](N)C(C)(C)C)cc2)s1.Cl", "values": [{"measurement": "Activity", "setting": "[1]", "value": 65, "unit": "%"}, {"measurement": "half-life", "setting": "[2]", "value": 2.74, "unit": "h"}]}
{"smiles": "Cc1nc(C)c(-c2ccc(-c3c[nH]c([C@@H]4C[C@@H](O)CN4C(=O)[C@@H](N)C(C)(C)C)n3)cc2)s1", "values": [{"measurement": "Activity", "setting": "[1]", "value": 35, "unit": "%"}, {"measurement": "half-life", "setting": "[2]", "value": 5.58, "unit": "h"}]}
